Measurements reported in patent US20150344466A1 (SUMITOMO CHEMICAL COMPANY, LIMITED, priority 2013, published 2015).

Tests used:
Type in all cases: in vivo
Blattella germanica [1] = test: Knockdown spray test on Blattella germanica, 2.0% w/v oil formulation (Test Example 1); conditions: topical, 0.25 h, active ingredient 2.0% w/v, 1.5 ml sprayed, within 15 minutes, read-out: knockdown rate of the test insects within 15 minutes
Description: Ten Blattella germanica (5 males and 5 females) were released in a test container (8.75 cm in diameter, 7.5 cm in height, and the bottom made of 16 mesh metallic wire) with the inner wall on which butter was applied, and the container was placed on the bottom of a test chamber (bottom: 46 cm×46 cm, height: 70 cm). From a height of 60 cm above the upper surface of the container, 1.5 ml of the test drug solution was sprayed using a spray gun (a spraying pressure of 0.42 kg/cm^2). Thirty seconds after spraying, the container was taken out from the test chamber, and after 2 minutes, 5 minutes and 15 minutes, the number of knocked-down insects was counted to obtain a knockdown rate. The knockdown rate was calculated by the following equation.
(§1) Knockdown Rate (%)=(Number of Knocked-down Insects/Number of Tested Insects)×100

Musca domestica [2] = test: Knockdown spray test on adult Musca domestica (Test Example 3); conditions: topical, 0.25 h, active ingredient 2.0% w/v, 0.5 ml sprayed, within 15 minutes, read-out: knockdown rate of the test insects within 15 minutes
Description: Ten adult Musca domestica (five males and five females) were released in a polyethylene cup (bottom diameter: 10.6 cm), and the cup was covered with a 16-mesh nylon gauze. The polyethylene cup was placed on the bottom of a test chamber (bottom: 46 cm×46 cm, height: 70 cm). From a height of 30 cm above the upper surface of the polyethylene cup, 0.5 ml of the test drug solution was sprayed using a spray gun (a spraying pressure of 0.9 kg/cm^2). Immediately after spraying, the cup was taken out from the test chamber, and after 2 minutes, 5 minutes and 15 minutes, the number of knocked-down insects was counted to obtain a knockdown rate. The knockdown rate was calculated by the following equation.
as §1

Culex pipiens pallens = test: Knockdown spray test on adult Culex pipiens pallens (Test Example 4); conditions: topical, 0.25 h, active ingredient 0.1% w/v, 0.5 ml sprayed, within 15 minutes, read-out: knockdown rate of the test insects within 15 minutes
Method in brief: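 Ten adult mosquitoes in a gauze-covered cup inside a 46×46×70 cm chamber were sprayed with 0.5 ml of test solution from 30 cm at 0.4 kg/cm^2. The cup was removed at once, and knocked-down insects were counted at 2, 5 and 15 min; knockdown rate (%) = knocked-down/tested ×100.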

Plutella xylostella = test: Foliar spray test on Plutella xylostella on cabbage (Test Example 10); conditions: 120 h, third instar larvae of Plutella xylostella on cabbage, 500 ppm spray 20 ml/cup, after five days, read-out: controlling value
Description: On the other hand, cabbage was planted in a polyethylene cup, and grown until the third-fourth true leaf was spread. The test spray solution was sprayed to the cabbage at a ratio of 20 ml/cup. After the drug solution sprayed on the cabbage was dried, 10 third instar larvae of Plutella xylostella were allowed to parasitize the cabbage. After five days, the number of Plutella xylostella was investigated, and the controlling value was calculated according to the following standard. Controlling value (%)={1−(Cb×Tai)/(Cai×Tb)}×100 In the equation, the symbols represent as follows. Cb: the number of insects in a non-treated section before treatment Cai: the number of insects in a non-treated section on observation Tb: the number of insects in a treated section before treatment Tai: the number of insects in a treated section on observation

Blattella germanica [3] = test: Knockdown spray test on Blattella germanica, 0.1% w/v oil formulation (Test Example 2); conditions: topical, 0.25 h, active ingredient 0.1% w/v, 1.5 ml sprayed, within 15 minutes, read-out: knockdown rate of the test insects within 15 minutes
Method in brief: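 Ten German cockroaches (5 males, 5 females) in a mesh-bottomed, butter-walled container were sprayed with 1.5 ml test solution from 60 cm at 0.42 kg/cm^2 inside a chamber.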

Musca domestica [4] = test: Filter paper/sucrose bait death rate test on Musca domestica (Test Example 5); conditions: female imagoes of Musca domestica, 0.7 ml on filter paper, after 24 hours
Description: A filter paper having a diameter of 5.5 cm was spread on the bottom of a polyethylene cup having the same diameter and 0.7 ml of the test drug solution was added dropwise onto the filter paper, and 30 mg of sucrose was uniformly placed as bait.
Into the polyethylene cup, 10 female imagoes of Musca domestica were released, and the cup was sealed with a lid. After 24 hours, the life and death of Musca domestica was examined, and the death rate was calculated. The death rate was calculated by the following equation.
Death rate (%)=(Number of dead insects/Number of tested insects)×100

Compound | pest or weed control at 2 % strength (Blattella germanica [1]) [%] | pest or weed control at 2 % strength (Musca domestica [2]) [%] | pest or weed control at 0.1 % strength (Culex pipiens pallens) [%] | pest or weed control at 500 ppm (Plutella xylostella) [%] | pest or weed control at 0.1 % strength (Blattella germanica [3]) [%] | pest or weed control at 500 ppm (Musca domestica [4]) [%]
CCCCc1cc(C(=O)NCC2CCOC2)no1 (stereo not drawn) [(11), N-(tetrahydrofuran-3-ylmethyl)-5-butylisoxazole-3-carboxamide] | ≥ 80 | ≥ 80 | ≥ 80 |  |  | 
O=C(NCC1CCCCO1)c1cc(COCc2ccccc2)on1 (stereo not drawn) [(14), N-(tetrahydropyran-2-ylmethyl)-5-benzyloxymethylisoxazole-3-carboxamide] | ≥ 80 | ≥ 80 | ≥ 80 |  |  | 
O=C(NCC1CCOC1)c1cc(COc2ccccc2)on1 (stereo not drawn) [(23), N-(tetrahydrofuran-3-ylmethyl)-5-phenyloxymethylisoxazole-3-carboxamide] | ≥ 80 |  | ≥ 80 | ≥ 90 |  | 
O=C(NCC1CCOC1)c1cc(COCc2cccc3ccccc23)on1 (stereo not drawn) [(27), N-(tetrahydrofuran-3-ylmethyl)-5-(1-naphthylmethoxymethyl)isoxazole-3-carboxamide] | ≥ 80 | ≥ 80 | ≥ 80 |  |  | 
O=C(NCC1CCOC1)c1cc(COCc2cccc(C(F)(F)F)c2)on1 (stereo not drawn) [(64), N-(tetrahydrofuran-3-ylmethyl)-5-(3-trifluoromethylbenzyloxymethyl)isoxazole-3-carboxamide] | ≥ 80 | ≥ 80 | ≥ 80 |  |  | 
Cc1ccc(COCc2cc(C(=O)NCC3CCOC3)no2)cc1 (stereo not drawn) [(97), N-(tetrahydrofuran-3-ylmethyl)-5-(4-methylbenzyloxymethyl)isoxazole-3-carboxamide] |  |  | ≥ 80 | ≥ 90 | ≥ 80 | 
Cc1ccc(COCc2cc(C(=O)NCC3CCOCC3)no2)cc1 [(98), N-(tetrahydropyran-4-ylmethyl)-5-(4-methylbenzyloxymethyl)isoxazole-3-carboxamide] |  |  | ≥ 80 | ≥ 90 | ≥ 80 | 
COc1ccc(COCc2cc(C(=O)NCC3CCOCC3)no2)cc1 [(100), N-(tetrahydropyran-4-ylmethyl)-5-(4-methoxybenzyloxymethyl) isoxazole-3-carboxamide] |  |  | ≥ 80 | ≥ 90 | ≥ 80 | ≥ 90
CSc1ccc(COCc2cc(C(=O)NCC3CCOC3)no2)cc1 (stereo not drawn) [(103), N-(tetrahydrofuran-3-ylmethyl)-5-(4-methylthiobenzyloxymethyl)isoxazole-3-carboxamide] |  |  | ≥ 80 | ≥ 90 | ≥ 80 | 
CSc1ccc(COCc2cc(C(=O)NCC3CCOCC3)no2)cc1 [(104), N-(tetrahydropyran-4-ylmethyl)-5-(4-methylthiobenzyloxymethyl)isoxazole-3-carboxamide] |  |  | ≥ 80 | ≥ 90 | ≥ 80 | 
O=C(NCC1CCOC1)c1cc(COCc2cccc(-c3ccccc3)c2)on1 (stereo not drawn) [(113), N1-(tetrahydrofuran-3-ylmethyl)-5-(3-phenylbenzyloxymethyl)isoxazole-3-carboxamide] | ≥ 80 | ≥ 80 | ≥ 80 |  |  | 
O=C(NCC1CCOC1)c1cc(COCC2COc3ccccc3O2)on1 (stereo not drawn) [(120), N-(tetrahydrofuran-3-ylmethyl)-5-(1,4-benzodioxan-2-ylmethoxymethyl)isoxazole-3-carboxamide] |  | ≥ 80 | ≥ 80 |  | ≥ 80 | 
O=C(NCC1CCOC1)c1cc(COCCC2CCCC2)on1 (stereo not drawn) [(132), N-(tetrahydrofuran-3-ylmethyl)-5-(2-cyclopentylethyl)oxymethylisoxazole-3-carboxamide] |  | ≥ 80 | ≥ 80 |  | ≥ 80 | ≥ 90
O=C(NCC1CCOC1)c1cc(Cc2ccc3ccccc3c2)on1 (stereo not drawn) [(159), N-(tetrahydrofuran-3-ylmethyl)-5-(naphthalen-2-ylmethyl)isoxazole-3-carboxamide] |  | ≥ 80 | ≥ 80 |  |  | 
O=C(NCC1CCOC1)c1cc(Cc2cccc3ccccc23)on1 (stereo not drawn) [(160), N-(tetrahydrofuran-3-ylmethyl)-5-(naphthalen-1-ylmethyl)isoxazole-3-carboxamide] |  | ≥ 80 | ≥ 80 |  |  | 
Cc1c(C(=O)NCC2CCOC2)noc1COCc1ccccc1 (stereo not drawn) [(169), N-(tetrahydrofuran-3-ylmethyl)-(5-benzyloxymethyl-4-methyl) isoxazole-3-carboxamide] |  | ≥ 80 | ≥ 80 |  | ≥ 80 | 
O=C(NCC1CCOC1)c1cc(COc2ccccc2Cl)on1 (stereo not drawn) [(176), N-(tetrahydrofuran-3-ylmethyl)-5-(2-chlorophenoxymethyl)isoxazole-3-carboxamide] |  | ≥ 80 | ≥ 80 |  | ≥ 80 | ≥ 90
Cc1c(C(=O)NCC2CCOC2)noc1COCc1ccc2ccccc2c1 (stereo not drawn) [(213), N-(tetrahydrofuran-3-ylmethyl)-4-methyl-5-(2-naphthylmethoxymethyl)isoxazole-3-carboxamide] |  | ≥ 80 | ≥ 80 |  | ≥ 80 | 
O=C(NCC1CCOCC1)c1cc(CCCc2ccccc2)on1 [(235), N-(tetrahydropyran-4-ylmethyl)-5-(3-phenylpropyl)isoxazole-3-carboxamide] |  | ≥ 80 | ≥ 80 |  | ≥ 80 | 
O=C(NCC1CCOC1)c1cc(COC/C=C/c2ccccc2)on1 (stereo not drawn) [(242), N-(tetrahydrofuran-3-ylmethyl)-5-(3-phenyl-(E)-2-propenyloxymethyl)isoxazole-3-carboxamide] |  | ≥ 80 | ≥ 80 |  |  | 
O=C(NCC1CCOC1)c1cc(COCc2ccccc2F)on1 (stereo not drawn) [(264), N-(tetrahydrofuran-3-ylmethyl)-5-(2-fluorobenzyloxymethyl)isoxazole-3-carboxamide] |  | ≥ 80 | ≥ 80 |  | ≥ 80 | ≥ 90
Cc1c(C(=O)NCC2CCOC2)noc1Cc1cccc(F)c1 (stereo not drawn) [(294), N-(tetrahydrofuran-3-ylmethyl)-4-methyl-5-(3-fluorobezyl)isoxazole-3-carboxamide] |  |  | ≥ 80 | ≥ 90 | ≥ 80 | ≥ 90
O=C(NCC1CCOC1)c1cc(Cc2cccc(OC(F)(F)F)c2)on1 (stereo not drawn) [(313), N-(tetrahydrofuran-3-ylmethyl)-5-(3-trifluoromethoxybenzyl) isoxazole-3-carboxamide] |  |  | ≥ 80 | ≥ 90 | ≥ 80 | ≥ 90
